Reference: US6576784B1, “Antiviral agents” (Yeda Research and Development Co. Ltd., priority 1993, dated 2003)

Experiments:
[1] = Quantum yield of singlet oxygen formation on irradiation in liposomes; format: physicochemical; settings: for Quantum yields of singlet oxygen (φΔ) formed on irradiation of hypericin analogs in liposomes: soya liposomes, DPBF, light of 420 nm; for singlet oxygen formed on irradiation in liposomes (in words): irradiation with visible light, bound to liposomes
[2] = system: non-enveloped viruses such as polio and rhino viruses; settings: Tang et al., Antiviral Res. 13:313 (1990); cited from earlier work
Murine Friend Virus = assay: Inhibition of Friend virus splenomegaly in BALB/c mice; format: in vivo; settings: single intravenous dose within 1 hour of infection, FIG. 2
Source text: Antiretroviral Activity of Hypericin Analogs Against Murine Friend Virus in BALB/c Mice
Mice infected with Friend virus (FV) develop a virus induced erythroleukemia whose early manifestation is a 4-8 time enlargement of the spleen size (splenomegaly) within 10 days after infection with the virus. Inhibition of splenomegaly can be used to quantitate the antiretroviral activity of various compounds in vivo. In this experiment, mice, in groups of 3, were infected with Friend virus and hypericin analogs (0.5 ml of solution in PBS) were then administered intravenously within 1 hour of the infection in a single dose of 1, 10, 50 and 150 μg per mouse.

[3] = system: Murine Radiation Leukemia Virus (Rad LV); assay: Direct inactivation of murine radiation leukemia virus measured by inhibition of virus particle derived reverse transcriptase activity; format: biochemical; settings: 0.01 μg/ml; virus incubated with compound on ice 30 min; FIG. 1
Procedure: Determination of Antiretroviral Activity of Hypericin Analogs by Monitoring the Direct Inactivation of Murine Radiation Leukemia Virus (Rad LV) Measured by the Inhibition of Virus Particle Derived Reverse Transcriptase Activity
Virus particles released into the growth medium of the AQR lymphoblastoid cell line which is infected with and producing RadLV, were exposed to hypericin and hypericin analogs. The virus and the substrate were incubated on ice for a period of 30 min., after which time the virus was precipitated by ultracentrifugation at 40,000 rpm for 1 hour in a Beckman ultracentrifuge, and analyzed for reverse transcriptase according to Stephenson et al., Virology 48:749 (1972). The results shown in FIG. 1 are expressed as counts per minute of tritiated-thymidine incorporation.

[4] = G. Lavie et al, J.N.Y. Acad. Sci. 616:556, 1990; cited from earlier work

2-(2-Methoxyethoxy)ethyl Ester Analog of Hypericin [Example 5]
Quantum yields of singlet oxygen (φΔ) formed on irradiation of hypericin analogs in liposomes [1]: 0.1

Cc1cc(O)c2c(=O)c3c(O)cc(O)c4c5c(O)cc(O)c6c(=O)c7c(O)cc(C)c8c1c2c(c34)c(c78)c65 [hypericin, Hypericin, reference compound]
activity against non-enveloped viruses (in words) [2]: not active
singlet oxygen formed on irradiation in liposomes (in words) [1]: comparatively high

n-butyl Ester Analog of Hypericin [Example 3]
inhibition of splenomegaly (Murine Friend Virus; 150 μg per mouse): 70%
antiviral activity (inhibition of virus particle derived reverse transcriptase activity, tritiated-thymidine incorporation) [3]: antiviral activity

Methyl Ester Analog of Hypericin [Example 1]
inhibition of splenomegaly (Murine Friend Virus; 10 μg per mouse): 65%
Quantum yields of singlet oxygen (φΔ) formed on irradiation of hypericin analogs in liposomes [1]: 0.38
antiviral activity (inhibition of virus particle derived reverse transcriptase activity, tritiated-thymidine incorporation) [3]: antiviral activity

n-propyl Ester Analog of Hypericin [Example 2]
inhibition of splenomegaly (Murine Friend Virus; 10 μg per mouse): 47%

octahydroxy hypericin [R1, R2 = OH, reference compound]
singlet oxygen formed on irradiation in liposomes (in words) [1]: did not produce detectable yields of singlet oxygen
Quantum yields of singlet oxygen (φΔ) formed on irradiation of hypericin analogs in liposomes [1]: <0.01
antiviral activity (in words) [4]: very weak antiviral activity

2-Methoxyethyl Ester Analog of Hypericin [Example 4]
Quantum yields of singlet oxygen (φΔ) formed on irradiation of hypericin analogs in liposomes [1]: 0.35
